These are literature values, as cited in patent US7005448B2, “Aminoalkyl-benzofuran-5-ol compounds for the treatment of glaucoma” (priority 2001, dated 2006).

One series deals with rabbit eye. Particulars: for intraocular pressure in the anterior chamber of the eye: topically applied to the rabbit eye [Meyer-Bothling et al. 1993].
A further series has as its target 5-HT2A receptor (Homo sapiens, UniProt P28223).
The next series has as its system animals. The note with it: in vivo.
Where [1] appears, read: intracamerally [Krootila et al. 1987].

Each structure is given as a SMILES string. Read-outs that look alike come from different tables or passages of the source.

Sequence of 5-HT2A receptor (P28223 whole entry): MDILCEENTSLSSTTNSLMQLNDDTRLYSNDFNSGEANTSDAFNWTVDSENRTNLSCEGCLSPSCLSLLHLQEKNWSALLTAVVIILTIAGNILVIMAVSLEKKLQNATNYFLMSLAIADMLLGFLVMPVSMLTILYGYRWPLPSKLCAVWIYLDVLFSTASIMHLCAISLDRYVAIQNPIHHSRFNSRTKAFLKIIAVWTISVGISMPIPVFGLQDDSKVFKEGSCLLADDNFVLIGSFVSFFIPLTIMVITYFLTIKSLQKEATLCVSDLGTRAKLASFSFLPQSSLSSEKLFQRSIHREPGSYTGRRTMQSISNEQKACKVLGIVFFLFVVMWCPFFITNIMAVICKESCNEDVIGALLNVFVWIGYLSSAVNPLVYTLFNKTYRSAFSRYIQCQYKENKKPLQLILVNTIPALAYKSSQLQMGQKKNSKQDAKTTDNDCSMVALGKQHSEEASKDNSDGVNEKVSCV

Take `COc1ccccc1N1CCN(CCCNc2c(C)c(=O)n(C)c(=O)n2C)CC1` [5-methylurapidil]: the IOP entry in the series with glaucomatous monkeys is given as “lowered IOP”. In the series on α1 receptor, the “α1 receptor antagonist activity” value was “relatively potent α1 receptor antagonists”.
For `CCCN(CCC)C1CCc2cccc(O)c2C1` (stereo not shown) [8-hydroxy DPAT], in the series on rabbit eye (rabbits), the IOP entry is on record as “lower IOP”.
For the compound `NCCc1c[nH]c2ccc(C(N)=O)cc12` [Compound 5-CT, 5-carboxamidotryptainine], the “intraocular pressure in the anterior chamber of the eye” value with rabbit eye is “raise intraocular pressure”.
In the case of `NCCc1c[nH]c2ccc(O)cc12` [Compound 5-HT, 5-hydroxy tryptamine], in the series with rabbit eye (setting [1]), the IOP result is given as “raised IOP” and the blood-aqueous barrier result is reported as “breakdown of the blood-aqueous barrier”. The IOP result with rabbit eye (topically applied [Krootila et al. 1987]) is “lowers IOP”. Also, the “intraocular pressure in the anterior chamber of the eye” value in the series with rabbit eye is recorded as “raise intraocular pressure”.
With `O=C(c1ccc(F)cc1)C1CCN(CCn2c(=O)[nH]c3ccccc3c2=O)CC1` [Ketanserin], the IOP result with rabbit eye (rabbits) and in the series with human subjects (man) was “lowers IOP” each time. Further, the “α1 receptor antagonist activity” value in the series on α1 receptor was “significant α1 antagonist activity”.
For the compound `c1ccc2c(c1)OC[C@H](CNCCCOc1ccc3c(c1)OCO3)O2` [MKC-242], in the series on rabbit eye (rabbits), the IOP entry is recorded as “lower IOP”. The “α1 receptor antagonist activity” value in the series with α1 receptor is listed as “relatively potent α1 receptor antagonists”.
Turning to `CC[C@@H](CO)NC(=O)[C@@H]1C=C2c3cccc4c3c(cn4C)C[C@H]2N(C)C1` [Methysergide], the IOP entry with rabbit eye (rabbits) is on record as “lowered IOP”.
For `COc1cccc(CCc2ccccc2OCC(CN(C)C)OC(=O)CCC(=O)O)c1` (stereo not shown) [Saprogrelate], the IOP result is “lowers IOP” in the series on rabbit eye (rabbits, dosed topically or orally) and “lowers IOP” in the series with human subjects (man, dosed topically or orally).
On to `CC(N)Cc1c2ccoc2c(Br)c2ccoc12` (stereo not shown) [The Nichols compound], for which, at 5-HT2A receptor, the “affinity for the 5-HT2A receptor” value is given as “high affinity”. In the series with animals, the “generalization to LSD in drug discrimination studies” value is reported as “generalize to LSD”.
Regarding `CNCCC(Oc1ccc(C(F)(F)F)cc1)c1ccccc1` (stereo not shown) [fluoxetine], the IOP result with human subjects (human subjects, oral administration) is “raises IOP”.
